# Patent US20210023223A1, “HYDROCARBON / LIPID - CAROTENOID COMPLEXES” (IP SCIENCE LIMITED, priority 2018, published 2021)
# Like-named read-outs stand apart in the source and are kept apart here.
# Legend:
# [1] = system: moderately obese volunteers; assay: Serum lipids after 20 mg lycopene for 1 month; format: in vivo, human
# Protocol: (§1) Study Design. The total number of volunteers recruited to take part in the study was 18 (9 male and 9 female subjects) Caucasians 40-67 years old.
# (§2) Products Formulated with Lycopene was developed and made by Lycotec Ltd. (Cambridge, United Kingdom). The daily dose was 1 capsule of 20 mg of lycopene, and it was taken with the main meal of the day. The period of administration was 1 month.
# (§3) Blood was collected by phlebotomy in the morning, in the hospital, from the arm veins of patients following night fast. The serum was separated from the rest of the clotted mass by centrifugation; aliquots were then stored in code-labelled tubes for blinded analysis and stored at −80° C. until use.
# [2] = Size of Olive oil lipid droplets, microscopy; format: physicochemical; design: Olive oil lipid droplets, Droplet square: unit not given here
# Protocol: (§4) For measurement of lipid droplets and fat globules and quantification of their size binocular microscope Olympus BX41 was used with Cell^B software for morphometric analysis. All parameters were collected from 10 randomly selected microscopic fields at ×1000).
# When lycopene was added to olive oil, rich with monounsaturated fatty acids, it increased the size of its lipid droplets in a dose-dependent manner, and table 4.
# [3] = Size of lipid droplets of dairy butter, microscopy; format: physicochemical
# From the text: as §4
# Incorporation of lycopene into the butter led to a significant increase in the size of its lipid droplets and many reached more than 100 or even 300 fold of their diameter. This effect was dose-dependent, and can already be observed for less than 1 molecule of lycopene to 224,000 molecules of butter triglycerides.
# [4] = Size of beef fat globules, microscopy; format: physicochemical
# From the text: For measurement of lipid droplets and fat globules and quantification of their size binocular microscope Olympus BX41 was used with Cell^B software for morphometric analysis. All parameters were collected from 10 randomly selected microscopic fields at ×1000). In case of beef fat, lycopene incorporation led to a smaller increase of its fat globules, only by 30%, FIG. 3.
# [5] = Spreadability of oil drops on the surface of water; format: physicochemical
# Protocol: 1. A petri dish of 13.5 cm diameter was filled to the brim with unheated water.
# 2. 0.3 ml of Olive or Sunflower oil was dropped onto the surface from a standardised height (30 cm) using a 1 ml pipette.
# 3. The resultant droplets were photographed and measured 30 sec after impact.
# 4. For increased reliability, the procedure was repeated 5 times.
# 5. Steps 1-4 were then repeated for Olive and Sunflower oils with or without carotenoids in different concentrations.
# [6] = Size of pork fat globules, microscopy; format: physicochemical; settings: maximum doses
# Protocol: as §4
# When carotenoids were added to animal fat, with a relatively high percentage of saturated fatty acid, a similar trend in increased fat globules was observed, although to a lesser degree. The maximum doses of lycopene or astaxanthin caused a similar increase in the pork fat globules diameter, only 50%, FIG. 2 and table 3.
# [7] = Size of Sunflower Oil lipid droplets, microscopy; format: physicochemical; design: Size of Sunflower Oil lipid droplets, Mean / Sunflower Oil lipid droplets, Droplet square: unit not given here
# From the text: as §4
# [8] = Lycopene in serum and cerumen after 20 mg lycopene for 1 month; format: in vivo, human; settings: n = 18; for concentration at 1 month: both sexes, human, oral, after 20 mg lycopene daily for one month
# Protocol: as §1, §2, §3
# For sample collection from the surface of the facial skin and samples of the cerumen all study participants were requested to avoid facial and ear hygienic manipulations for 24 hours before sampling, which was carried out in the morning in parallel with blood sample collection. Skin surface sample collection and preparation was performed as previously described. Briefly, samples were collected using polyester swabs from the surface of the facial skin (the sides of the nose). During the procedure two samples were taken (one swab per side). Each collected sample was placed on the surface of a microscope slide. A second microscope slide was pressed against the surface of the first one. This procedure provided a pair of identical smears. All slides with collected samples were coded to provide sample anonymity for blinded analysis and stored at −20° C. until further analysis.
# The lycopene concentration in all serum samples was measured in duplicate by high-performance liquid chromatography with modifications. Briefly, 400 μl of serum was mixed with 400 μl of ethanol and was extracted twice with 2 ml hexane. The combined hexane layers were evaporated to dryness in a vacuum (Scan Speed 32 centrifuge) and the residue reconstituted to a volume of 100 μl in sample solution (absolute ethanol—methylene chloride, 5:1, v/v). The specimens were centrifuged again (15 minutes at 10,000 g) and clear supernatant was transferred to HPLC vials. Five microliters of the extract was injected into an Acquity HSS T3 75×2.1 mm 1.8 μm column (Waters, USA) preceded by a Acquity HSS T3 1.8 μm VanGuard precolumn (Waters, USA) and eluted isocratically at 45° C. with the mobile phase (acetonitrile—0.08% phosphoric acid solution—tert-Butyl methyl ether, 70:5:25, v/v/v) at a flow rate of 0.5 ml/min. The lycopene peak was detected by a Photodiode Array Detector (Waters, USA) at 474 nm. The peak area was measured using Empower 3 software (Waters, Mass.). The lycopene concentration in serum samples was calculated by reference to an analytical standard (lycopene from tomato, L9879, Sigma, USA).
# [9] = after 20 mg lycopene daily for one month
# [10] = lycopene dose 0.1 per 30 g of Olive oil
# [11] = lycopene dose 0.5 per 30 g of Olive oil
# [12] = lycopene dose 1.0 per 30 g of Olive oil
# [13] = lycopene dose 2.0 per 30 g of Olive oil
# [14] = lycopene dose 3.5 per 30 g of Olive oil
# [15] = lycopene dose 7.0 per 30 g of Olive oil
# [16] = lycopene dose 10.0 per 30 g of Olive oil
# [17] = lycopene dose 0.1 per 30 g of the oil
# [18] = lycopene dose 0.5 per 30 g of the oil
# [19] = lycopene dose 1.0 per 30 g of the oil
# [20] = lycopene dose 2.0 per 30 g of the oil
# [21] = lycopene dose 3.5 per 30 g of the oil
# [22] = lycopene dose 7.0 per 30 g of the oil
# [23] = lycopene dose 10.0 per 30 g of the oil
compound,measurement,setting,value
CC(C)=CCC/C(C)=C/C=C/C(C)=C/C=C/C(C)=C/C=C/C=C(C)/C=C/C=C(C)/C=C/C=C(\C)CCC=C(C)C [Lycopene],HDL,[1]; [9],49.9 ± 3.0^ mg/dL
same,LDL,[1]; [9],121 ± 10.5 mg/dL
same,Triglycerides,[1]; [9],128 ± 9.7 mg/dL
same,HDL,"[1]; before, n = 18",49.2 ± 2.9^ mg/dL
same,LDL,"[1]; before, n = 18",134 ± 11.3 mg/dL
same,Triglycerides,"[1]; before, n = 18",136 ± 10.1 mg/dL
same,"Olive oil lipid droplets, Droplet square",[2]; [10],27.2
same,"Size of Olive oil lipid droplets, Mean",[2]; [10],46.24 μm
same,"Olive oil lipid droplets, Droplet square",[2]; [11],36.36
same,"Size of Olive oil lipid droplets, Mean",[2]; [11],40.00 μm
same,"Olive oil lipid droplets, Droplet square",[2]; [12],10.29
same,"Size of Olive oil lipid droplets, Mean",[2]; [12],185.13 μm
same,"Olive oil lipid droplets, Droplet square",[2]; [13],17.39
same,"Size of Olive oil lipid droplets, Mean",[2]; [13],260.80 μm
same,"Olive oil lipid droplets, Droplet square",[2]; [14],24.05
same,"Size of Olive oil lipid droplets, Mean",[2]; [14],457.00 μm
same,"Olive oil lipid droplets, Droplet square",[2]; [15],61.31
same,"Size of Olive oil lipid droplets, Mean",[2]; [15],490.50 μm
same,"Olive oil lipid droplets, Droplet square",[2]; [16],36.77
same,"Size of Olive oil lipid droplets, Mean",[2]; [16],367.70 μm
same,"Increase in lipid droplet diameter, could reach",[2]; olive oil,20 fold
same,"Size of butter lipid droplets, Mean",[3]; lycopene dose 0.1 per 30 g of butter,34.32 μm
same,"Size of butter lipid droplets, Mean",[3]; lycopene dose 0.5 per 30 g of butter,60.39 μm
same,"Size of butter lipid droplets, Mean",[3]; lycopene dose 1.0 per 30 g of butter,92.35 μm
same,"Size of butter lipid droplets, Mean",[3]; lycopene dose 3.5 per 30 g of butter,90.18 μm
same,"Size of butter lipid droplets, Mean",[3]; lycopene dose 7.0 per 30 g of butter,178.95 μm
same,"Size of butter lipid droplets, Mean",[3]; lycopene dose 10.0 per 30 g of butter,141.17 μm
same,Increase in the size of butter lipid droplets (diameter),"[3]; many droplets, 'more than 100 or even 300 fold'",more than 100 fold
same,Increase of beef fat globules,[4],30%
same,Diameter of spread lipid drops relative to intact oil,"[5]; 1 molecule of lycopene within about 120,000 molecules of oil lipids",6-8 fold
same,Increase of spreadability on the surface of the water,[5]; sunflower oil,23 fold
same,Increase in the pork fat globules diameter,[6],50%
same,"Size of Sunflower Oil lipid droplets, Mean",[7]; [17],65.16
same,"Sunflower Oil lipid droplets, Droplet square",[7]; [17],0.36
same,"Size of Sunflower Oil lipid droplets, Mean",[7]; [18],144.82
same,"Sunflower Oil lipid droplets, Droplet square",[7]; [18],1.20
same,"Size of Sunflower Oil lipid droplets, Mean",[7]; [19],79.73
same,"Sunflower Oil lipid droplets, Droplet square",[7]; [19],0.72
same,"Size of Sunflower Oil lipid droplets, Mean",[7]; [20],149.25
same,"Sunflower Oil lipid droplets, Droplet square",[7]; [20],1.32
same,"Size of Sunflower Oil lipid droplets, Mean",[7]; [21],286.00
same,"Sunflower Oil lipid droplets, Droplet square",[7]; [21],4.03
same,"Size of Sunflower Oil lipid droplets, Mean",[7]; [22],202.78
same,"Sunflower Oil lipid droplets, Droplet square",[7]; [22],3.44
same,"Size of Sunflower Oil lipid droplets, Mean",[7]; [23],434.81
same,"Sunflower Oil lipid droplets, Droplet square",[7]; [23],20.71
same,"Increase in lipid droplet diameter, could reach",[7]; sunflower oil,20 fold
same,Lycopene in cerumen,[8]; before,0.29 ± 0.05 ng/mg
same,Lycopene in serum,[8]; before,137 ± 14.5 ng/mL
same,concentration at 1 month,"[8]; cerumen, read-out: Lycopene in cerumen",900 ± 120 ng/g
same,concentration at 1 month,"[8]; serum, read-out: Lycopene in serum",310 ± 29.9 ng/mL
